Key:
[1] = tested on: leukaemia cell; test: Cell viability assay, leukaemia cell lines (summary); assay type: cell-based; settings: summary of Table 6A; read-out: IC50, leukaemia cell growth
Description: (§1) Antitumor activity of the compounds and doxorubicin as a positive control was assessed by using the CellTiter-Blue Cell Viability Assay (Promega, #G8082) or CellTiter-Glow® Luminescent Cell Viability assay (Promega # G7572) according to the manufacturer's instructions. The compounds were tested at 5 or 6 concentrations in half-log increments (highest concentration 30 μM-100 μM) in duplicate or triplicate well conditions.
(§2) Tumor cells were grown at 37° C. in a humidified atmosphere with 5% CO2 in RPMI 1640 or DMEM medium, supplemented with 10% (v/v) fetal calf serum and 50 μg/ml gentamicin for up to 20 passages, and were passaged once or twice weekly. Cells were harvested using TrypLE or PBS buffer containing 1 mM EDTA, and the percentage of viable cells is determined using a CASY Model TT cell counter (OMNI Life Science). Cells were harvested from exponential phase cultures, counted and plated in 96 well flat-bottom microtiter plates at a cell density depending on the cell line's growth rate (4,000-20,000 cells/well depending on the cell line's growth rate, up to 60,000 for hematological cancer cell lines) in RPMI 1640 or DMEM medium supplemented with 10% (v/v) fetal calf serum and 50 μg/ml gentamicin (140 μl/well). […] Viability of cells was quantified by the CellTiter-Blue® cell viability assay (Promega G8081) or CellTiter-Glow® Luminescent Cell Viability assay (Promega # G7572). […]

[2] = tested on: DOHH-2; test: Cell viability assay, lymphoma cell line DOHH-2; assay type: cell-based; settings: Homo sapiens; DOHH-2 lymphoma cell line
Description: as §1, §2

[3] = tested on: ES-06-0122; test: PDX cytotoxicity assay, esophagus PDX ES-06-0122; assay type: cell-based
Description: (§3) PDX-derived cell cultures were obtained from tumors explanted from mice and isolated by mechanical and enzymatic dissociation. […] Cells were harvested and seeded in 96-wells plates at a density of 1.25 to 5×10^3 cells/well for cytotoxicity assays. Cells were incubated 48 h at 37° C. prior to addition of test molecules and vehicle (DMSO, 0.1%) at desired final concentrations. Cell viability was assessed before drugs' addition (T0) and 5 days after test molecules addition by measuring ATP cell content using CellTiter-Glo® Luminescent Cell Viability Assay (Promega) according to the manufacturer's instructions. Luciferase activity was measured on a luminometer (PerkinElmer® EnVision™). Each concentration of compounds was tested in triplicate.
(§4) Viability was calculated as a percentage of ATP value compared to vehicle treated controls.
(§5) For PDX primary cell cultures, the tumour tissue was washed with PBS containing antibiotic-antimycotic and non-tumour tissue and necrotic tumour tissues were separated. The tumour tissue was transferred to a new dish and cut into 1˜2 mm^3 fragments, resuspended in RPMI-1640 medium and centrifuged at 1,200 rpm for 6 min at room temperature. The pelleted material was resuspended with 15 mL of Tumour Cell Digestion Solution and incubated at 37° C. for 1 hour with agitation. […]

[4] = tested on: NCI-H1299; test: Cell viability assay, non-small cell lung carcinoma cell line NCI-H1299; assay type: cell-based; settings: Homo sapiens
Description: as §1
(§6) Tumor cells were grown at 37° C. in a humidified atmosphere with 5% CO2 in RPMI 1640 or DMEM medium, supplemented with 10% (v/v) fetal calf serum and 50 μg/ml gentamicin for up to 20 passages, and were passaged once or twice weekly. Cells were harvested using TrypLE or PBS buffer containing 1 mM EDTA, and the percentage of viable cells is determined using a CASY Model TT cell counter (OMNI Life Science). Cells were harvested from exponential phase cultures, counted and plated in 96 well flat-bottom microtiter plates at a cell density depending on the cell line's growth rate (4,000-20,000 cells/well depending on the cell line's growth rate, up to 60,000 for hematological cancer cell lines) in RPMI 1640 or DMEM medium supplemented with 10% (v/v) fetal calf serum and 50 μg/ml gentamicin (140 μl/well). Cultures were incubated at 37° C. and 5% CO2 in a humidified atmosphere. After 24 h, 10 μl of test compounds or control medium are added, and left on the cells for another 72 h. Compounds were serially diluted in DMSO, transferred in cell culture medium, and added to the assay plates. The DMSO concentration was kept constant at <0.3% v/v across the assay plate. Viability of cells was quantified by the CellTiter-Blue® cell viability assay (Promega G8081) or CellTiter-Glow® Luminescent Cell Viability assay (Promega # G7572). Fluorescence (FU) was measured by using the EnSpire® multimode plate reader (Perkin Elmer) (excitation λ=570 nm, emission λ=600 nm) or luminescent detection of ATP in viable cells was used as parameter for proliferation. Luminescence was measured with the microplate luminometer (Promega or Perkin Elmer).
(§7) Sigmoidal concentration-response curves were fitted to the data points (test-versus-control, T/C values) obtained for each tumor model using 4 parameter non-linear curve fit (Charles River DRS Datawarehouse Software) or with GraphPad prism 5.02 software. IC50 values are reported as absolute IC50 values, being the concentration of test compound at the intersection of the concentration-response curves with T/C=50%

[5] = target: T1, RSK2(Kin.Dom.1-N-terminal) (Homo sapiens, UniProt P51812); test: KINOMEscan competition binding assay, RSK2(Kin.Dom.1-N-terminal)
T1 construct: RSK2(Kin.Dom.1-N-terminal); purchased Eurofins (KINOMEscan assay service); host or cells: E. coli BL21-derived (T7 phage) or HEK-293
T1 sequence (P51812 68-327 limits assumed): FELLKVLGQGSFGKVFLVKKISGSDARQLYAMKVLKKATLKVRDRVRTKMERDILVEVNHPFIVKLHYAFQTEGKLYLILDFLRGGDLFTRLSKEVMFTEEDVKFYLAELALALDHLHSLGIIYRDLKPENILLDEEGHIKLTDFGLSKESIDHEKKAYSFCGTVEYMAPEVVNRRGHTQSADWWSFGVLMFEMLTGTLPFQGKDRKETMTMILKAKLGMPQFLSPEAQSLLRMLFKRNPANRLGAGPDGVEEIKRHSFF
Description: (§8) The Hill Slope was set to −1.

[6] = tested on: HN-13-0020; test: PDX cytotoxicity assay, head and neck PDX HN-13-0020; assay type: cell-based
Description: as §3, §4, §5

[7] = tested on: K562; test: Cell viability assay, leukaemia cell line K562; assay type: cell-based; settings: Homo sapiens
Description: as §1, §2

[8] = tested on: CH-17-0091; test: PDX cytotoxicity assay, bile duct PDX CH-17-0091; assay type: cell-based
Description: as §3, §4, §5

[9] = tested on: NALM-6; test: Cell viability assay, leukaemia cell line NALM-6; assay type: cell-based; settings: Homo sapiens; NALM-6 leukaemia cell line
Description: as §1, §2

[10] = tested on: ST-02-0322; test: PDX cytotoxicity assay, stomach PDX ST-02-0322; assay type: cell-based
Description: as §3, §4, §5

[11] = tested on: lung carcinoma cell; test: Cell viability assay, lung carcinoma cell lines (summary); assay type: cell-based; settings: summary of Tables 7A-E; read-out: IC50s, lung carcinoma cell growth
Description: as §1, §6, §7

[12] = target: T2, SNARK (Homo sapiens, UniProt Q9H093); test: KINOMEscan competition binding assay, SNARK
T2 construct: purchased Eurofins (KINOMEscan assay service); host or cells: E. coli BL21-derived (T7 phage) or HEK-293
T2 sequence (Q9H093 whole entry): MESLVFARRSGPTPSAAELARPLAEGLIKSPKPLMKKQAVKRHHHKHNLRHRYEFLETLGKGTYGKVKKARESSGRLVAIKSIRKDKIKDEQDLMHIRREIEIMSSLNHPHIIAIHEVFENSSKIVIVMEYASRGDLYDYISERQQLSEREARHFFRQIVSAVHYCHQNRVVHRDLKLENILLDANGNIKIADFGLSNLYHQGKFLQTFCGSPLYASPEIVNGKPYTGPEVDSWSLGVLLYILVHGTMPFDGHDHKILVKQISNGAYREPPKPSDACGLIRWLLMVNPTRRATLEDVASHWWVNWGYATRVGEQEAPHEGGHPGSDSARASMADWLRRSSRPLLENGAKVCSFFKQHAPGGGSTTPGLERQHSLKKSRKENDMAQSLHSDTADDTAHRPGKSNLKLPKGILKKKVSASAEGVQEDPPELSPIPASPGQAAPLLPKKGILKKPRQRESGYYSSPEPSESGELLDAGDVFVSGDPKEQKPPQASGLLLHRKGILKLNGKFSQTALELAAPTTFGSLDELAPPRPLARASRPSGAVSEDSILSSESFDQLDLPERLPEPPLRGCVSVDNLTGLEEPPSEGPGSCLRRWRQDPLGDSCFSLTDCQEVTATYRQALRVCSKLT
Description: as §8

[13] = tested on: LY-24-0340; test: PDX cytotoxicity assay, lymphoma PDX LY-24-0340; assay type: cell-based
Description: as §3, §4, §5

[14] = tested on: SU-DHL-4; test: Cell viability assay, lymphoma cell line SU-DHL-4; assay type: cell-based; settings: Homo sapiens; SU-DHL-4 lymphoma cell line
Description: as §1, §2

[15] = In vivo maximum tolerated dose in NOG mice
Description: In order to evaluate the general toxicity of selected SND compounds in an animal model, a maximum tolerated dose (MTD) in NOG mice has been undertaken. Three mice per group were treated daily or every other day over 8 days at various doses between 5 mg/kg and 10 mg/kg. Administration of the compounds was i.p. A stock solution of the compounds (40 mg/ml in DMSO) was prepared and frozen at −20° C. in aliquots for each treatment. […] Body weights were measured before each treatment. Mice were further observed for 1 week after the last treatment.

With COc1c(O)ccc2c(=O)cc(-c3ccc(CNCCCCNCCCN)cc3)oc12 [SND164] the IC50 [1] was < 10 µM, the IC50 [2] was 4.3 µM and the IC50 [3] was 5.7 µM. It also gave an IC50 [4] of 1.25 µM, a Kd [5] of 1.4 µM and an IC50 [6] of 2.7 µM. For the same compound, the IC50 [7] was 3.48 µM, the IC50 [8] was 13.8 µM and the IC50 [9] was 4.45 µM. For the same compound, the IC50 [10] was 5.45 µM, the IC50 [11] was < 20 µM and the Kd [12] was 0.9 µM. For the same compound, the IC50 [13] was < 0.16 µM, the IC50 [14] was 3.3 µM and the “tolerability at the highest dose administered” value ([15]; 8-10 mg/kg i.p., daily or every other day over 8 days) was “well tolerated”. For the same compound, the MTD at 8 days ([15]; mouse, in vivo, ip, repeated i.p. administration, MTD not reached, read-out: maximum tolerated dose (MTD), estimated) was > 10 mg/kg.

From patent US20240132461A1, “FLAVONE DEAZA SPERMIDINE ANALOGUES AND THEIR USE TREATING CANCER” (FLORATEK PHARMA S.A., priority 2021, published 2024)
